Key:
[1] = system: HeLa cells engineered to inducibly express oncogenic KRasG12V; experiment: Wild-type versus KRAS HeLa cell viability (Cell Titre Blue); type: cell-based; conditions: Homo sapiens, KRAS G12V transgene, 72 hours
Description: Thus, atropisomer A-2 was tested on HeLa cells engineered to inducibly express wild-type or oncogenic […] transgenes using the FLP-in/T-Rex system (Invitrogen). Cells were plated, and then treated with or without doxycycline to induce transgene expression, and then treated with serially-diluted atropisomer A-2. After 72 hours of incubation, cell viability was assessed using the Cell Titre Blue reagent (Promega) and a BMG Pherastar plate reader. The effect of PBD inhibition on cell viability with either wild-type or oncogenic G12V KRAS was assessed using GraphPad Prism.

[2] = target: T1, panel of ninety-seven kinases (Homo sapiens, UniProt O14920); experiment: DiscoverX KinomeScreen competition binding assay (kinase selectivity panel); conditions: IKBKB; screened at 3000 nM
T1 construct: purchased DiscoverX; host or cells: E. coli (BL21-derived, T7 phage display) or HEK-293
In short: (§1)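 Kinases on T7 phage (BL21-derived E. coli host) or DNA-tagged from HEK-293 cells compete between compound and a bead-immobilized biotinylated ligand. Captured kinase is eluted and quantified by qPCR. Compound is tested at 3000 nM (3 μM); binding is reported as % Ctrl, with DMSO as 100% and control compound as 0%.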

[3] = target: T2, panel of ninety-seven kinases (Homo sapiens, UniProt P50750); experiment: as above; conditions: CDK9; screened at 3000 nM
T2 construct: purchased DiscoverX; host or cells: E. coli (BL21-derived, T7 phage display) or HEK-293
T2 sequence (P50750 whole entry): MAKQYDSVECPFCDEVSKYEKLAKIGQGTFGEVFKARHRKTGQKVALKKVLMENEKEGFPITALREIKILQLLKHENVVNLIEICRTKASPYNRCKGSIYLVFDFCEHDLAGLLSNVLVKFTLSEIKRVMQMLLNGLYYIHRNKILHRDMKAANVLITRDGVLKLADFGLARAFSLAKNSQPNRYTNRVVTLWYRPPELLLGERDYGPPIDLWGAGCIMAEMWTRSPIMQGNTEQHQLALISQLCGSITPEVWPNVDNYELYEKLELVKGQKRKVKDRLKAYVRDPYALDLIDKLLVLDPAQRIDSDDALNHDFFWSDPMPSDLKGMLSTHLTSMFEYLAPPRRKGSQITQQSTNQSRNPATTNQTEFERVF
In short: as §1

[4] = target: T3, panel of ninety-seven kinases (Homo sapiens, UniProt P06213); experiment: as above; conditions: INSR; screened at 3000 nM
T3 construct: purchased DiscoverX; host or cells: E. coli (BL21-derived, T7 phage display) or HEK-293
In short: as §1

[5] = target: T4, panel of ninety-seven kinases (Homo sapiens, UniProt P36507); experiment: as above; conditions: MAP2K2; screened at 3000 nM
T4 construct: purchased DiscoverX; host or cells: E. coli (BL21-derived, T7 phage display) or HEK-293
In short: as §1

[6] = target: T5, panel of ninety-seven kinases (Homo sapiens, UniProt Q15759); experiment: as above; conditions: MAPK11; screened at 3000 nM
T5 construct: purchased DiscoverX; host or cells: E. coli (BL21-derived, T7 phage display) or HEK-293
T5 sequence (Q15759 whole entry): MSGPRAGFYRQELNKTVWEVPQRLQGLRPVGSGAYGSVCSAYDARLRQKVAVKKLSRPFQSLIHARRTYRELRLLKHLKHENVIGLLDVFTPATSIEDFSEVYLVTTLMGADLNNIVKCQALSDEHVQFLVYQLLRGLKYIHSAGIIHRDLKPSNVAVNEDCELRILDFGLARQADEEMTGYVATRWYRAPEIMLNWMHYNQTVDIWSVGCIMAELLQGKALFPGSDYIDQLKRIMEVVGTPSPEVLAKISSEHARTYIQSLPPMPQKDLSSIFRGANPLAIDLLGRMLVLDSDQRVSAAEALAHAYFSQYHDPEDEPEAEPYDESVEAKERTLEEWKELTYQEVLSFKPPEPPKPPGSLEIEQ
In short: as §1

[7] = target: T6, panel of ninety-seven kinases (Homo sapiens, UniProt P51812); experiment: as above; conditions: RPS6KA3; screened at 3000 nM
T6 construct: purchased DiscoverX; host or cells: E. coli (BL21-derived, T7 phage display) or HEK-293
In short: as §1

[8] = target: T7, panel of ninety-seven kinases (Homo sapiens, UniProt P49841); experiment: as above; conditions: GSK3B; screened at 3000 nM
T7 construct: purchased DiscoverX; host or cells: E. coli (BL21-derived, T7 phage display) or HEK-293
T7 sequence (P49841 whole entry): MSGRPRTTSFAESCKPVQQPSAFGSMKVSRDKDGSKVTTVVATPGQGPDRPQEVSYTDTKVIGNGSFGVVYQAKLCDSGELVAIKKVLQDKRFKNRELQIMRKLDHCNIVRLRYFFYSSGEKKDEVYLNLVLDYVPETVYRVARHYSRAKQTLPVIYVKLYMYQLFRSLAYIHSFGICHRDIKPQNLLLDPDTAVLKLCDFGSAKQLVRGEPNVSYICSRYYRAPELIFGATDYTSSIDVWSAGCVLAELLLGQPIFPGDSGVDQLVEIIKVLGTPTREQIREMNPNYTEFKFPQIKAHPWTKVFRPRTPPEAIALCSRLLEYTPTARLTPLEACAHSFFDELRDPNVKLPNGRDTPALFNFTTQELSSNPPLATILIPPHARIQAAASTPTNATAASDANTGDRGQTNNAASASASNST
In short: as §1

[9] = target: T8, panel of ninety-seven kinases (Homo sapiens, UniProt P09619); experiment: as above; conditions: PDGFRB; screened at 3000 nM
T8 construct: purchased DiscoverX; host or cells: E. coli (BL21-derived, T7 phage display) or HEK-293
T8 sequence (P09619 33-1106): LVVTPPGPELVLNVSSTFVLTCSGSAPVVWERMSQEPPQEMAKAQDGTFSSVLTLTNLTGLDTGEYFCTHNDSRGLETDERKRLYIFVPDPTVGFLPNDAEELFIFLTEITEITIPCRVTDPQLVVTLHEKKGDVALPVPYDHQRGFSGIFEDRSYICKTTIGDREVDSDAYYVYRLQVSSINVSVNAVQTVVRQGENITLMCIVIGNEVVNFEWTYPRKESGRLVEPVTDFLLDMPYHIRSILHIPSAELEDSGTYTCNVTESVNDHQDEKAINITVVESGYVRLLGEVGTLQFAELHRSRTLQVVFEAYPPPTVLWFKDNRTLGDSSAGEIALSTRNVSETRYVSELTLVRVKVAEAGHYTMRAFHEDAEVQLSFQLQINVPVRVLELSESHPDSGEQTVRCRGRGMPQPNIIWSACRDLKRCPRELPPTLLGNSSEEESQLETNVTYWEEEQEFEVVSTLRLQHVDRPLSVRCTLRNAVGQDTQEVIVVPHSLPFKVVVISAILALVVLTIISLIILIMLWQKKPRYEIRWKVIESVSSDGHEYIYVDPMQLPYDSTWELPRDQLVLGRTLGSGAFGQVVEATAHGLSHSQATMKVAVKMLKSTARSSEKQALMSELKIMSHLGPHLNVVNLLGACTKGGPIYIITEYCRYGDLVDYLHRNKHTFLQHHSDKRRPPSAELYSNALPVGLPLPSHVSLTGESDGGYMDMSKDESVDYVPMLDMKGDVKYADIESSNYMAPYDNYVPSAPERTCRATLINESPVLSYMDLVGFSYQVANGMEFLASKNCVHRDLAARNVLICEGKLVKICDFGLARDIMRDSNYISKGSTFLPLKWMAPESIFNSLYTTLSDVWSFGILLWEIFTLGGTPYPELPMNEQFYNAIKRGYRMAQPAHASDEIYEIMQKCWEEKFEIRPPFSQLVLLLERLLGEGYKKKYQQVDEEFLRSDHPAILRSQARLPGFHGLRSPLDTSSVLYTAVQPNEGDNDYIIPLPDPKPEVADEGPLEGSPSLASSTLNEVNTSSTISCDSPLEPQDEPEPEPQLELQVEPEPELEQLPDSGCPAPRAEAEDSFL
In short: as §1

[10] = target: T9, panel of ninety-seven kinases (Homo sapiens, UniProt P07949); experiment: as above; conditions: RET; screened at 3000 nM
T9 construct: purchased DiscoverX; host or cells: E. coli (BL21-derived, T7 phage display) or HEK-293
T9 sequence (P07949 29-1114): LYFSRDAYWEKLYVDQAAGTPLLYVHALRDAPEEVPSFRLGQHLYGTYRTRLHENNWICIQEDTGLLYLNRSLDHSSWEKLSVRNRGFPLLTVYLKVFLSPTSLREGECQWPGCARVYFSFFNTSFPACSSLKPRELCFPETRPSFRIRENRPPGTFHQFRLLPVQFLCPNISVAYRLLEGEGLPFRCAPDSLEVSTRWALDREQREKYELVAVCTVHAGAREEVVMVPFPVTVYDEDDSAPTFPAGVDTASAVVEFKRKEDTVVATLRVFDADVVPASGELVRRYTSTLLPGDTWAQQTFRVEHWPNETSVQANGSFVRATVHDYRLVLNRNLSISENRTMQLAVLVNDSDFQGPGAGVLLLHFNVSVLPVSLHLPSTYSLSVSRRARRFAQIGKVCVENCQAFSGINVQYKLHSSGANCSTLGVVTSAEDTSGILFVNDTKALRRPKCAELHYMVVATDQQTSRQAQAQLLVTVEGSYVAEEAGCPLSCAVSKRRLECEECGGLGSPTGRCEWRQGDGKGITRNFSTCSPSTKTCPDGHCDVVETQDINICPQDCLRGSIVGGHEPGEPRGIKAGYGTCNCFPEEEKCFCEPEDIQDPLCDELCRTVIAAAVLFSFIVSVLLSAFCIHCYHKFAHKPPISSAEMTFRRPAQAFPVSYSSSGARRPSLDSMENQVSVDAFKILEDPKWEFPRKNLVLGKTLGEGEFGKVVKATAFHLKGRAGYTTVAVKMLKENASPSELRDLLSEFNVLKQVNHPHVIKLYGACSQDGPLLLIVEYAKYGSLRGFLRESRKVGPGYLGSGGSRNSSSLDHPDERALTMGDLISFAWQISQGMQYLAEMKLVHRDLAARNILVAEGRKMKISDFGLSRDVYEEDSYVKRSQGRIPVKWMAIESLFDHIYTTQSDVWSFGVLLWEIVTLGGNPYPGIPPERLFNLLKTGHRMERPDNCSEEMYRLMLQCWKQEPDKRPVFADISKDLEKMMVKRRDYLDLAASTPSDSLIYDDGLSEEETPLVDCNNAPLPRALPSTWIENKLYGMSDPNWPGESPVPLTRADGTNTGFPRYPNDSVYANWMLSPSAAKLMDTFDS
In short: as §1

[11] = target: T10, panel of ninety-seven kinases (Homo sapiens, UniProt Q00536); experiment: as above; conditions: CDK16; screened at 3000 nM
T10 construct: purchased DiscoverX; host or cells: E. coli (BL21-derived, T7 phage display) or HEK-293
In short: as §1

[12] = target: T11, panel of ninety-seven kinases (Homo sapiens, UniProt P48736); experiment: as above; conditions: PIK3CG; screened at 3000 nM
T11 construct: purchased DiscoverX; host or cells: E. coli (BL21-derived, T7 phage display) or HEK-293
In short: as §1

[13] = target: T12, panel of ninety-seven kinases (Homo sapiens, UniProt P49137); experiment: as above; conditions: MAPKAPK2; screened at 3000 nM
T12 construct: purchased DiscoverX; host or cells: E. coli (BL21-derived, T7 phage display) or HEK-293
T12 sequence (P49137 whole entry): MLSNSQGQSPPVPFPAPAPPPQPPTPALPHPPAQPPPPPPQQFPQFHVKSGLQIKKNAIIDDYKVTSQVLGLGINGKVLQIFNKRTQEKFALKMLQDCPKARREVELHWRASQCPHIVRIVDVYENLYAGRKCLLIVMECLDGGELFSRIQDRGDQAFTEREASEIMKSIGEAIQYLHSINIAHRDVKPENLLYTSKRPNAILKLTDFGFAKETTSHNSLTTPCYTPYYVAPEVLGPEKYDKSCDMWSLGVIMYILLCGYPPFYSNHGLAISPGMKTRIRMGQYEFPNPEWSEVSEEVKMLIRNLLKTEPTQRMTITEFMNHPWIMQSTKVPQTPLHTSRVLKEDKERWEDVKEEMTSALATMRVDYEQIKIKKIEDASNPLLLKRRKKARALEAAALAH
In short: as §1

[14] = target: T13, panel of ninety-seven kinases (Homo sapiens, UniProt P21802); experiment: as above; conditions: FGFR2; screened at 3000 nM
T13 construct: purchased DiscoverX; host or cells: E. coli (BL21-derived, T7 phage display) or HEK-293
In short: as §1

[15] = target: T14, panel of ninety-seven kinases (Homo sapiens, UniProt O15075); experiment: as above; conditions: DCLK1; screened at 3000 nM
T14 construct: purchased DiscoverX; host or cells: E. coli (BL21-derived, T7 phage display) or HEK-293
In short: as §1

[16] = target: T15, panel of ninety-seven kinases (Homo sapiens, UniProt Q9UPE1); experiment: as above; conditions: SRPK3; screened at 3000 nM
T15 construct: purchased DiscoverX; host or cells: E. coli (BL21-derived, T7 phage display) or HEK-293
In short: as §1

[17] = target: T16, panel of ninety-seven kinases (Homo sapiens, UniProt P35968); experiment: as above; conditions: KDR; screened at 3000 nM
T16 construct: purchased DiscoverX; host or cells: E. coli (BL21-derived, T7 phage display) or HEK-293
T16 sequence (P35968 20-1356): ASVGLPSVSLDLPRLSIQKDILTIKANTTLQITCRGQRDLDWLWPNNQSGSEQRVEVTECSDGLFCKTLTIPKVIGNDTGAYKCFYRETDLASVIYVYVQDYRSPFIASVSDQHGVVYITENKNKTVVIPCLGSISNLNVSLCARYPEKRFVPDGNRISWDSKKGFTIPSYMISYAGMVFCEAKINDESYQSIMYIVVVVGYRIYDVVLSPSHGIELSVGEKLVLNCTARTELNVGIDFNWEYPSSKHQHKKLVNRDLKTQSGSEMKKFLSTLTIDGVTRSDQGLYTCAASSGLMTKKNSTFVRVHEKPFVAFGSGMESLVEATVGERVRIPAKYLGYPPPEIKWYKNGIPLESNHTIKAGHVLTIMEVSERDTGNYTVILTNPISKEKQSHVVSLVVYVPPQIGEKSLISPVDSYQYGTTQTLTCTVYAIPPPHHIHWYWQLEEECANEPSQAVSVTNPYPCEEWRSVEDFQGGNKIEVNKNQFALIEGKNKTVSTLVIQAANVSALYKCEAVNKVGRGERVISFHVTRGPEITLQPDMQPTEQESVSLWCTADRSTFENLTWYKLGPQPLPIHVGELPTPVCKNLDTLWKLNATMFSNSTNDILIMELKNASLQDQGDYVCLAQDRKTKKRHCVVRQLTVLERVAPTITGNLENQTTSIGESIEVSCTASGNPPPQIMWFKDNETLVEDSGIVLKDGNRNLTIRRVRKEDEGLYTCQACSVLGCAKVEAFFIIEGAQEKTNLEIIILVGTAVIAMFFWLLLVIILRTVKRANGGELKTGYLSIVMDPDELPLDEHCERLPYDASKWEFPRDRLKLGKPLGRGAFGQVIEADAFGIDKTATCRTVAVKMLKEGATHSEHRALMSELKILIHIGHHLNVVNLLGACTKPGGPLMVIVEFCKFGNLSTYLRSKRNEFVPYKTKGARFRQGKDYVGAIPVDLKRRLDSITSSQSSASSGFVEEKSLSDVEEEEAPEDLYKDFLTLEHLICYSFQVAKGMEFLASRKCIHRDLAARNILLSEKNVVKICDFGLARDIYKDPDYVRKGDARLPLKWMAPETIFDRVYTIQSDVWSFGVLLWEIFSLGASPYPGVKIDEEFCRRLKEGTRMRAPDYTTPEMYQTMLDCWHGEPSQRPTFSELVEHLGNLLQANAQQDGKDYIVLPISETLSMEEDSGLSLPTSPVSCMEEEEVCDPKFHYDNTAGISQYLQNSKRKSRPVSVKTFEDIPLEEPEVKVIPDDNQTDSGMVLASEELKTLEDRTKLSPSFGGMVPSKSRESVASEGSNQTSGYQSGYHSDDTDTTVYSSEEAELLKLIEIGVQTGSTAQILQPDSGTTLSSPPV
In short: as §1

[18] = target: T17, panel of ninety-seven kinases (Homo sapiens, UniProt P45984); experiment: as above; conditions: MAPK9; screened at 3000 nM
T17 construct: purchased DiscoverX; host or cells: E. coli (BL21-derived, T7 phage display) or HEK-293
In short: as §1

[19] = target: T18, panel of ninety-seven kinases (Homo sapiens, UniProt Q13153); experiment: as above; conditions: PAK1; screened at 3000 nM
T18 construct: purchased DiscoverX; host or cells: E. coli (BL21-derived, T7 phage display) or HEK-293
In short: as §1

[20] = target: T19, panel of ninety-seven kinases (Homo sapiens, UniProt P29317); experiment: as above; conditions: EPHA2; screened at 3000 nM
T19 construct: purchased DiscoverX; host or cells: E. coli (BL21-derived, T7 phage display) or HEK-293
In short: as §1

- GI50 [1]: 2.08 nM
- % Ctrl @ 3 μM [2]: 96 % Ctrl
- % Ctrl @ 3 μM [3]: 97 % Ctrl
- % Ctrl @ 3 μM [4]: 100 % Ctrl
- % Ctrl @ 3 μM [5]: 81 % Ctrl
- % Ctrl @ 3 μM [6]: 99 % Ctrl
- % Ctrl @ 3 μM [7]: 100 % Ctrl
- % Ctrl @ 3 μM [8]: 88 % Ctrl
- % Ctrl @ 3 μM [9]: 100 % Ctrl
- % Ctrl @ 3 μM [10]: 95 % Ctrl
- % Ctrl @ 3 μM [11]: 100 % Ctrl
- % Ctrl @ 3 μM [12]: 100 % Ctrl
- % Ctrl @ 3 μM [13]: 75 % Ctrl
- % Ctrl @ 3 μM [14]: 85 % Ctrl
- % Ctrl @ 3 μM [15]: 87 % Ctrl
- % Ctrl @ 3 μM [16]: 71 % Ctrl
- % Ctrl @ 3 μM [17]: 100 % Ctrl
- % Ctrl @ 3 μM [18]: 80 % Ctrl
- % Ctrl @ 3 μM [19]: 87 % Ctrl
- % Ctrl @ 3 μM [20]: 100 % Ctrl
Compound: CN(C)CCNC(=O)c1ccc(-c2ccc(-c3ccc(Cl)cc3)n2-c2ccccc2C(F)(F)F)cc1 (single isomer, unassigned) [Atropisomer A-2]

— patent US12637424B2, “Pharmaceutical salt of an arylpyrrole derivative” (SENTINEL ONCOLOGY LIMITED, priority 2020, dated 2026)
